What was measured:
[1] = tested on: mechanical pain sensitivity; test: SNL model (L5 spinal nerve ligation), Von Frey mechanical pain sensitivity; type: in vivo, ICR mice
Experimental: Experimental material: The experimental animals used in this experiment are male ICR mice, with an initial weight of 30±2 g and SPF grade. The feeding environment of the mice is room temperature of 22±2° C., and the humidity is controlled at 70%-80%. Mice were free to drink water and eat, and fed with normal feed.
Experimental method: Preparation of animal model: Establishment of SNL model of ligation of the fifth spinal nerve on the left lumbar vertebra in mice: After the animals were anesthetized with isoflurane, the L5 transverse process on the left back was exposed, the L5 nerve was dissociated and ligated with No.6 ophthalmic thread, and the wound was treated with penicillin and then sutured. In Sham group, only L5 transverse process was exposed without nerve ligation. After the model was established, the behavior of mice was observed, and the individuals with impaired motor behavior were excluded. […] Grouping and administration: Mice were randomly divided into Sham group, model group and AEA group (20 mg/kg/day), with 8 mice in each group. The three groups were administered by gavage for 16 d, wherein the Sham group and model group were given the same volume of distilled water by gavage. Von Frey method was used to detect the mechanical pain sensitivity of mice: after administration, the mice were placed in an organic glass box in a quiet room to adapt for 1.5 h, so that the mice were in a resting state. Von Frey fibers were used to continuously stimulate the L5 nerve reflex area on the sole of the operated hind limb for 3˜4 s, and the test was conducted for 4 times, with an interval of 5 min each time, and the threshold of 50% mechanical foot retraction of the hind paw was recorded.

Bacteroides = test: Relative abundance of Bacteroides in feces of high-fat diet mice (16S rDNA sequencing); type: in vivo; settings: obese mice induced by high-fat diet, AEA 20 mg/kg once a day, four weeks
Experimental: (§1) After a week of adaptive feeding, mice were randomly divided into three groups according to sex and weight: group 1, normal group, n=10; group 2, high-fat diet group, n=10; and group 3, high-fat diet+AEA group, n=10. The normal group was given normal feed, while the high-fat diet group was given high-fat and high-sugar feed (containing 35% fat, 18% protein and 47% carbohydrate), and the high-fat diet+AEA group was given high-fat and high-sugar feed containing AEA (20 mg/kg), for four weeks. The specific gavage scheme is: calculate and gavage once a day according to the weight of mice, while the normal group gavage with the same amount of normal saline. Four samples of mouse feces were randomly taken from each group. The samples were first extracted for DNA, 16S rDNA was amplified by PCR, and then sequenced, and the relative abundance of each strain was analyzed.
(§2) FIG. 2 is a graph showing changes in the relative abundance of Roseburia. […] FIG. 3 is a graph showing changes in the relative abundance of Bacteroides. […] After AEA treatment, the level of Bacteroides in obese mice induced by high-fat diet increased by 20%. FIG. 4 is a graph showing changes in the relative abundance of Prevotella. […] After AEA treatment, the level of Prevotella in obese mice induced by high-fat diet increased by 25%. FIG. 5 is a graph showing changes in the relative abundance of Salmonella. […]

Salmonella = test: Relative abundance of Salmonella in feces of high-fat diet mice (16S rDNA sequencing); type: in vivo; settings: obese mice induced by high-fat diet, AEA 20 mg/kg once a day, four weeks
Experimental: as §1, §2

acute colitis model = test: DSS-induced acute colitis model, disease activity index (DAI); type: in vivo, mice; settings: 3% DSS for 9 days, AEA daily dose 2.5 mg/kg; model group close to 3
From the text: Experimental method: Thirty 4-6-week-old mice, 15 males and 15 females, were selected for adaptive feeding for 7 days in advance. They were randomly divided into control group (CON), model group (DSS) and administration group (DSS+AEA), with 10 mice in each group. The model group and the administration group were gavaged with 3% dextran sodium sulfate (DSS) for 9 days to establish an acute colitis model, while the control group was gavaged with the same amount of normal saline every day. The weight, feces and rectal bleeding of mice were recorded every day, and the disease activity index (DAI) was used to evaluate the condition of colitis. The DAI value was obtained by adding all the scores and dividing them by three. Mice in the administration group were given AEA at a daily dose of 2.5 mg/kg. On the 10th day, blood was taken from the orbit of each mouse, and then it was killed. Colon tissues were collected, fixed in 4% paraformaldehyde solution and stored at −80° C. for subsequent analysis. The pathological damage of colon tissue was examined by hematoxylin-eosin staining and Alxin blue staining.

Bacteroides/Firmicutes = test: Relative abundance ratio of Bacteroides and Firmicutes in feces of high-fat diet mice (16S rDNA sequencing); type: in vivo; settings: obese mice induced by high-fat diet, AEA 20 mg/kg once a day, four weeks
Experimental: as §1
Abundance ratio of Bacteroides and Firmicutes: Bacteroides is the representative of intestinal probiotics and Firmicutes is the representative of intestinal harmful bacteria. The higher the ratio, the healthier the intestinal flora is.

Escherichia coli = test: Relative abundance of Escherichia coli in feces of high-fat diet mice (16S rDNA sequencing); type: in vivo; settings: obese mice induced by high-fat diet, AEA 20 mg/kg once a day, four weeks
Experimental: as §1, §2

Roseburia = test: Relative abundance of Roseburia in feces of high-fat diet mice (16S rDNA sequencing); type: in vivo; settings: high-fat+AEA group, AEA 20 mg/kg once a day, four weeks
Experimental: as §1, §2

Prevotella = test: Relative abundance of Prevotella in feces of high-fat diet mice (16S rDNA sequencing); type: in vivo; settings: obese mice induced by high-fat diet, AEA 20 mg/kg once a day, four weeks
Experimental: as §1, §2

[2] = tested on: mood and depressive behavior; test: Forced swimming test; type: in vivo, C57BL/6J mice; settings: AEA 20 mg/kg/day
Experimental: (§3) Experimental materials: The experimental animals used in this experiment are male C57BL/6J mice, 6 weeks old, with an initial weight of 18-22 g and SPF grade. The feeding environment of the mice is room temperature of 22±1° C. and humidity of 55±10%, and the mice are fed with normal feed. Mice were randomly divided into blank control group and AEA group, with 10 mice in each group. The AEA group was given a dose of 20 mg/kg/day, while the blank control group was given distilled water of the same volume.
(§4) Experimental method: Tail suspension test and forced swimming test were used to evaluate mood and depressive behavior. Forced swimming test: put a single mouse into a beaker and keep the water temperature at (25±2)° C. The experiment lasted for 6 min, and the immobility time of mice within 4 min was calculated. Tail suspension test: a mouse was fixed at the back ⅓ of the tail end with adhesive tape and hung upside down on an iron bar, with its head 10 cm away from the bottom of the box. The experiment lasted for 6 min, and the immobility time of mice within 4 min was calculated.

[3] = tested on: mood and depressive behavior; test: Tail suspension test; type: in vivo, C57BL/6J mice; settings: AEA 20 mg/kg/day
Experimental: as §3, §4

## CCCCC/C=C\C/C=C\C/C=C\C/C=C\CCCC(=O)NCCO [AEA, N-arachidonoyl ethanolamine]
[1]; administration 1 d, AEA 20 mg/kg/day by gavage, SNL model 0.005 ± 0.002
  threshold of 50% foot contraction: 0.010 ± 0.010
[1]; administration 6 d, AEA 20 mg/kg/day by gavage, SNL model 0.019 ± 0.008
  threshold of 50% foot contraction: 0.067 ± 0.013
[1]; administration 11 d, AEA 20 mg/kg/day by gavage, SNL model 0.018 ± 0.018
  threshold of 50% foot contraction: 0.133 ± 0.023
[1]; administration 16 d, AEA 20 mg/kg/day by gavage, SNL model 0.020 ± 0.018
  threshold of 50% foot contraction: 0.193 ± 0.002
[1]; after 6 days of administration, AEA 20 mg/kg/day by gavage
  threshold of 50% foot contraction compared with the SNL model (in words): increased significantly
[1]; before modeling (baseline)
  threshold of 50% foot contraction: 0.323 ± 0.040
Bacteroides
  increase of level of Bacteroides after AEA treatment: 20%
Salmonella
  decrease of Salmonella level after AEA treatment: 20%
Acute colitis model
  DAI score: about 2
Bacteroides/Firmicutes
  ratio of Bacteroides/Firmicutes: increased after AEA administration, which was close to the level of normal group
Escherichia coli
  decrease of level of Escherichia coli after AEA treatment: 42%
Roseburia
  level (relative abundance) of Roseburia: close to that in normal mice
Prevotella
  increase of level of Prevotella after AEA treatment: 25%
[2]
  reduction of immobility time compared with the blank group, forced swimming test: 23%
[3]
  reduction of immobility time compared with the blank group, tail suspension test: 28%

From patent publication US20250339389A1, “N-ARACHIDONOYL ETHANOLAMINE COMPOSITION AND USE THEREOF” (NANJING NUTRABUILDING BIO-TECH CO., LTD., priority 2023, published 2025)
